# According to PMC9740789, “Investigation of In Vitro and In Vivo Metabolism of α-Amanitin in Rats Using Liquid Chromatography-Quadrupole Time-of-Flight Mass Spectrometric Method” (Molecules, 2022):
# Legend:
# [1] = In vitro MetID in CLM and HLM; type: in vitro ADME, cynomolgus monkey, human; settings: in vitro MetID with GSH in liver microsomes of 5 species
# Experimental: Therefore, in vitro and in vivo MetID were conducted to explore any possible different metabolites between the two systems. The in vitro and in vivo MetID samples were analyzed by a LC-qTOF-MS, and the data were used to elucidate a metabolite of α-amanitin using PeakView® and MetabolitePilot™. The structure of the metabolite of α-amanitin was predicted by MetabolitePilot™. The fragmentation pattern of the predicted metabolite ion from product ion scan was compared to the fragmentation pattern of the parent ion using PeakView®.
# In vitro MetID was conducted in 5 species (mouse, rat, cynomolgus monkey, dog, and human) of liver microsomes. Cofactors (NADPH solution A and B, 5 mM UDPGA, and 0.5 mM GSH), compound (2 mg/mL of α-amanitin), and DW were mixed and pre-incubated for 5 min at 37 °C. After the pre-incubation, 20 μL of liver microsome (20 mg/mL) was added to 380 μL of cofactor mixture and incubated for 0 and 120 min at 37 °C. After the incubation for each time point, 150 μL of the mixture was transferred to 450 μL of 50% ACN in MeOH for stopping the reaction. Then the mixture was centrifuged at 10,000 rpm for 5 min. Then 550 μL of the supernatant was collected in a fresh E-tube and evaporated for 4 h. After evaporation, samples were reconstituted with 60 μL of 50% MeOH with 5 mM ammonium formate. […]
# [2] = In vitro metabolic stability in human liver microsomes; type: in vitro ADME
# Experimental: (§1) In vitro stability of α-amanitin at liver microsomal system was evaluated by a LC-qTOF-MS. The remaining % represents the percentage of the sample (α-amanitin) peak area to the internal standard (verapamil) peak area.
# (§2) The in vitro half-life (T1/2) and the in vitro intrinsic clearance (CLint, in vitro) were calculated by using the slope (k) of the graph shown in Figure 3. The calculation formula is shown in Equations (1) and (2). (1) T1/2=ln2/k (2) CLint,in vitromL/min/mg=k×microsomal volume mL/microsomal protein mg
# (§3) The concentration of liver microsomes (microsomal volume/microsomal protein) used in the experiment was 0.5 mL/mg. The obtained CLint, in vitro was used to calculate in vivo intrinsic clearance (CLint, in vivo). The equations for calculating CLint, in vivo is shown at Equation (3):(3) CLint,in vivomL/min/kg=CLint,in vitro×mg microsomal protein/g liver weight×(g liver weight/kg body weight)
# (§4) The ratio of mg microsomal protein to g liver weight was 44.8 and 48.8 in rat and human, respectively. And the ratio of g liver weight/kg body weight was 40 and 25.7 in rat and human, respectively. The hepatic clearance (CLh) was calculated from CLint, in vivo in a well-stirred model using the following Equation (4):(4) CLhmL/min=(Qh×CLint,in vivo/Qh+CLint,in vivo)
# (§5) Qh (mL/min/kg), the hepatic blood flow, is known to be 55.2 and 20.7 mL/min/kg in rat and human, respectively. As a result, α-amanitin has a low hepatic clearance according to the aforementioned well-stirred model.
# (§6) A metabolic stability test of α-amanitin was performed in rat and human liver microsomes. Cofactors (NADPH regenerating system solution A and B), compound (100 μg/mL of α-amanitin), 0.5 M potassium phosphate buffer with pH 7.4, and DW were mixed and pre-incubated for 5 min at 37 °C. After the pre-incubation, 12 μL of rat or human liver microsome (20 mg/mL each) was added to a 468 μL of pre-incubated cofactor mixture and the mixture was incubated for 0, 15, 30, and 60 min. After the incubation for each time point, 100 μL of the mixture was aliquoted to a 1.5 mL E-tube at each time point and 100 μL of 50% ACN in MeOH which containing 250 ng/mL of verapamil as an internal standard for protein precipitation was added for stopping the reaction. Then the mixture was centrifuged at 10,000 rpm for 5 min. Then 180 μL of the supernatants was collected in a fresh E-tube and evaporated for 3 h. After evaporation, samples were reconstituted with 150 μL of 50% MeOH with 5 mM ammonium formate. After centrifugation at 10,000 rpm for 5 min, 140 μL of reconstituted sample was transferred to a LC-vial.
# [3] = In vitro metabolic stability in rat liver microsomes; type: in vitro ADME
# Experimental: as §1, §2, §3, §4, §5, §6
structure (smiles),measurement,setting,value
CC[C@H](C)[C@@H]1NC(=O)CNC(=O)[C@@H]2Cc3c([nH]c4cc(O)ccc34)[S@+]([O-])C[C@H](NC(=O)CNC1=O)C(=O)N[C@@H](CC(N)=O)C(=O)N1C[C@H](O)C[C@H]1C(=O)N[C@@H]([C@@H](C)[C@@H](O)CO)C(=O)N2 [α-amanitin],Reactive metabolites (GSH adducts),[1],no reactive metabolites with GSH adducts were detected
same,remaining at 0.25 h,"[2]; human liver microsomes, 15 min incubation, NADPH regenerating system, potassium phosphate buffer pH 7.4, 37 °C, 5 min pre-incubation, LC-qTOF-MS",89.2 ± 5.72%
same,remaining at 0.5 h,"[2]; human liver microsomes, 30 min incubation, NADPH regenerating system, potassium phosphate buffer pH 7.4, 37 °C, 5 min pre-incubation, LC-qTOF-MS",85.1 ± 5.52%
same,remaining at 1 h,"[2]; human liver microsomes, 60 min incubation, NADPH regenerating system, potassium phosphate buffer pH 7.4, 37 °C, 5 min pre-incubation, LC-qTOF-MS",82.6 ± 3.96%
same,half-life,"[2]; human liver microsomes, in vitro half-life, ln2/k from slope of ln(Remaining %) vs incubation time 0-60 min, NADPH, pH 7.4, 37 °C",3.93 h
same,"CLint, In Vitro","[2]; human liver microsomes, k × microsomal volume/microsomal protein (0.5 mL/mg as printed)",<10 µL/min/mg
same,CLh,"[2]; human, predicted hepatic clearance, well-stirred model, Qh 20.7 mL/min/kg",5.43 mL/min/kg
same,"CLint, In Vivo","[2]; human, scaled from CLint, in vitro with 48.8 mg microsomal protein/g liver and 25.7 g liver/kg body weight",7.36 mL/min/kg
same,remaining at 0.25 h,"[3]; rat liver microsomes, 15 min incubation, NADPH regenerating system, potassium phosphate buffer pH 7.4, 37 °C, 5 min pre-incubation, LC-qTOF-MS",94.2 ± 8.6%
same,remaining at 0.5 h,"[3]; rat liver microsomes, 30 min incubation, NADPH regenerating system, potassium phosphate buffer pH 7.4, 37 °C, 5 min pre-incubation, LC-qTOF-MS",93.1 ± 8.64%
same,remaining at 1 h,"[3]; rat liver microsomes, 60 min incubation, NADPH regenerating system, potassium phosphate buffer pH 7.4, 37 °C, 5 min pre-incubation, LC-qTOF-MS",90.3 ± 4.37%
same,half-life,"[3]; rat liver microsomes, in vitro half-life, ln2/k from slope of ln(Remaining %) vs incubation time 0-60 min, NADPH, pH 7.4, 37 °C",7.45 h
same,"CLint, In Vitro","[3]; rat liver microsomes, k × microsomal volume/microsomal protein (0.5 mL/mg as printed)",<10 µL/min/mg
same,CLh,"[3]; rat, predicted hepatic clearance, well-stirred model, Qh 55.2 mL/min/kg",5.05 mL/min/kg
same,"CLint, In Vivo","[3]; rat, scaled from CLint, in vitro with 44.8 mg microsomal protein/g liver and 40 g liver/kg body weight",5.56 mL/min/kg
